“Also recorded” adds a separate entry of the source.
Key:
[1] = tested on: SiHa human cervical cell line; experiment: In vitro cytotoxicity (SRB growth inhibition) assay, SiHa; format: cell-based; set-up: dose or concentration left out as unconfirmed; conditions: 72 h
Procedure: (§1) The SHetA2, SHetA3, SHetA4, SHet50 and 9-cis-RA compounds were evaluated in 4 cervical carcinoma cell lines. The SiHa, CC-1 and C33a human cervical cell lines were maintained in Minimal Essential Media (MEM) containing Earle's salts and L-glutamine supplemented with nonessential amino acids, 1% sodium pyruvate, 10% fetal bovine serum (FBS) and antibiotic/antimycotic. The HT-3 cervical carcinoma cell line was cultured in McCoy's 5a medium supplemented with 10% FBS and antibiotic/antimycotic. Cells were inoculated into 96 well microtiter plates at densities of 1000 cells/well and incubated for 24 h prior to addition of drugs. Drugs were dissolved in dimethyl sulfoxide (DMSO) and diluted in complete medium, prior to addition to triplicate culture wells to achieve final concentrations of […]. Following drug addition, the plates were incubated for 72 h. The assay was terminated by the addition of cold TCA and the cells were stained with 0.4% sulforhodamine B (SRB) in 1% acetic acid. Bound stain was subsequently solubilized with 10 mM trizma base, and the absorbance was read on an automated plate reader at a wavelength of 560 nm. Growth inhibition was determined by dividing the average Optical Density (OD) of the triplicated treated cultures by the average OD of the triplicate control cultures treated with DMSO solvent only. This ratio was converted into a percentage by multiplying by 100. The potency (concentration required to induce half of the maximal activity—GI50) were derived from dose-response graphs generated with results from 3 to 5 individual experiments using GraphPad Software.

[2] = tested on: C33a human cervical cell line; experiment: In vitro cytotoxicity (SRB growth inhibition) assay, C33a; format: cell-based; set-up: dose or concentration left out as unconfirmed; conditions: 72 h
Procedure: as §1

Raldh2 −/− embryos = experiment: Rescue of Raldh2 −/− embryos and teratogenesis; format: in vivo, mouse; conditions: for No. of −/− unrescued / Teratogenesis (no. of embryos) / No. of −/− rescued: E10.25 embryos
Procedure: Dosages varied from 0.025 to 25 mg/kg.

[3] = tested on: HT-3 cervical carcinoma cell line; experiment: In vitro cytotoxicity (SRB growth inhibition) assay, HT-3; format: cell-based, human; set-up: dose or concentration left out as unconfirmed; conditions: 72 h
Procedure: as §1

[4] = tested on: ovarian carcinoma organotypic cultures; experiment: Organotypic culture model of ovarian tumors; format: cell-based, human; conditions: 1 μM retinoid in media; 3, 7 or 14 days
Procedure: FIG. 17. Retinoid effects on ovarian carcinoma organotypic cultures. Organotypic cultures of OVCAR-3 (A, B, E, F, I and J), Caov-3 (C and G), SK-OV-3 (D and H), and O2 (K and L) were grown in the absence (−, top row and K) or presence (+, middle row and I, J and L) of retinoid HetA4 at a concentration of 1 μM in the media. All sections were stained with H&E except for I, which was stained with PAS to detect glycoproteins and glandular differentiantion, and J, which was stained with the TUNEL assay to detect apoptosis. All magnifications are 40×.
To test our hypotheses, we evaluated the effects of clinically achievable concentrations of 4-HPR and Flex-Hets on growth, differentiation and apoptosis in ovarian tissue. A series of compounds with a variety of receptor activation profiles were evaluated. In order to evaluate therapeutic effects, we developed an organotypic culture model of ovarian tumors by growing established cell lines and primary cultures inside collagen gels. Monolayer cultures of cells are not accurate representations of in vivo tissue because they lack the types of interactions that cells have with other cells and with the extracellular matrix in vivo. These interactions are known to influence gene expression and thus the constitution and behavior of cells. In our organotypic model, the growth of tumor cells inside the collagen allows a representation of tumors that have invaded stromal tissue. In the presence of fibroblasts, established cell lines and primary cultures of ovarian cancer formed colonies inside the collagen, while normal or benign ovarian epithelial cells remained as single cells inside the collagen. Human ovarian cancer cell lines (OVCAR-3, Caov-3, SK-OV-3, A2780, UCI 101) and primary human cultures (borderline ovarian tumor (O1), serous papillary tumor (O2), benign ovarian cyst (O3)) were cultured inside and on top of a collagen gel seeded with 3T3 fibroblasts for one week. After further incubation in the presence or absence of 1 μM retinoid (media concentration) for 3, 7 or 14 days, cultures were fixed and sectioned for immunohistochemical analysis.

[5] = tested on: CC-1 human cervical cell line; experiment: In vitro cytotoxicity (SRB growth inhibition) assay, CC-1; format: cell-based; set-up: dose or concentration left out as unconfirmed; conditions: 72 h
Procedure: as §1

[6] = tested on: dorsal skin of female Skh hairless mice; experiment: Topical irritancy; format: in vivo; conditions: topical on dorsal skin for 4 days; 2-log concentration dose range
Procedure: Female Skh hairless mice, 6-8 weeks old, were treated topically on the dorsal skin for 4 days over a 2-log concentration dose range with various compounds. Retinoic acid receptor-Hets were evaluated in A, while retinoic acid receptor-independent Flex-Hets were evaluated in B. Daily flaking and abrasion scores were combined to calculate a single cutaneous toxicity score for each mouse. Each treatment group consisted of 4 mice, and group averages were used to plot cutaneous toxicity against doses of the compounds.
Topical irritancy was evaluated according to published procedures (29). Briefly, female Skh hairless mice, 6-8 weeks old, were treated topically on the dorsal skin for 4 days over a 2-log concentration dose range with various compounds. Daily flaking and abrasion scores were combined to calculate a single cutaneous toxicity score for each mouse. Each treatment group consists of 4 mice, and group averages are used to plot cutaneous toxicity against dose of the retinoid compound.

OVCAR-3 xenograft tumors = experiment: OVCAR-3 xenograft tumor animal model, tumor growth; format: in vivo, mouse; conditions: 10 mg/kg/day by gavage, 5 days/week, 4 weeks; t-test on day 29
Procedure: Groups of 5 mice bearing OVCAR-3 xenografted tumors were gavaged daily with the indicated drugs in sesame oil (▪ closed square) or with sesame oil alone (∘ open circle). Tumor volumes were measured in 3 dimensions with calipers weekly. Each data point represents the average and standard error of the tumor volumes on the indicated treatment day relative to the tumor volume on day zero. Nu/nu mice were injected subcutaneously with one million OVCAR-3 cells and arbitrarily divided into five groups of six mice each. After three weeks of tumor growth, the animals were gavaged with sesame oil, 10 mg/kg/day 4-HPR, or the indicated Het five times per week for four weeks and the tumors were measured once per week. The tumor sizes were averaged and divided by the average size for each group on the day that treatment was initiated (day 0).
The OVCAR-3 cultures were maintained in RPMI media supplemented with 10% fetal bovine serum. All animal experimentation described in this manuscript was conducted in accord with accepted standards of humane animal care. Twenty-five female NU/NU CD-1 female mice (Charles Rivers Laboratories) were housed in a laminar flow room under sterile conditions at 83-85° F. The mice were quarantined for one week prior to the beginning of the study and were allowed access to autoclaved food (Purina 5001 mouse/rat sterilizable diet, St. Louis, Mo.) and water ad libitum. OVCAR-3 cells in log phase growth were harvested by trypsinization, resuspended in RPMI culture medium, and centrifuged at 3,000 rpm for 10 min. The pellets were resuspended in RPMI culture medium at a concentration of 7×10^6 cells/ml before implantation into mice. Animals were injected with 3.5×10^6 cells into the right scapular region with a 24-gauge needle/1 cc tuberculin syringe. Twenty-four hours after tumor implantation, animals were randomized into 5 groups of 5 animals each.
The Hets SHet50, SHetA2 and SHetA4 were synthesized and their receptor specificity determined as previously described (17,19). The 4-HPR compound was a gift from R.W. Johnson Pharmaceutical Research Institute, Raritan, N.J. All retinoids were dissolved in super refined sesame oil (Croda, Inc., Parsippany, N.J.) and stored at −80° C. Since the retinoids are light sensitive, all manipulations involving retinoids were performed under subdued lighting. […] Tumors were measured with calipers weekly, and tumor volumes were calculated using the formula: volume=length×width×height. Tumor growth was determined by the dividing the volume of the tumor at each weekly measurement by the volume on the first day of treatment. Animal weights and clinical signs of overall health status and cutaneous toxicities were recorded weekly.

[7] = Alanine aminotransferase (ALT) activity in plasma of mice; format: in vivo, mouse; conditions: end of treatment, 10 mg/kg/day by gavage
Procedure: At the end of the treatment period, blood was drawn from each animal. Plasma was separated by centrifugation and stored at −70° C. The activity of ALT was determined in aliquots of plasma by standard spectrophotometric enzymatic techniques which are based on the reduction of pyruvate by lactate dehydrogenase (28). The method measures NADH disappearance with time of incubation at 37° C. The activities are expressed as mm/L/min. Two different amounts of plasma were used in each assay to assure measurement of the maximum rate.

[8] = dose 2.5 mg/kg oral to pregnant mice
[9] = dose 10 mg/kg oral to pregnant mice
[10] = dose 1.0 mg/kg oral to pregnant mice
[11] = dose 25 mg/kg oral to pregnant mice
[12] = dose 0.025 mg/kg oral to pregnant mice
[13] = dose 0.25 mg/kg oral to pregnant mice
[14] = dose 0.5 mg/kg oral to pregnant mice

Q: What does the source list for CC1=C(/C=C/C(C)=C\C=C\C(C)=C\C(=O)O)C(C)(C)CCC1 [9-cis-RA, 9-cis-retinoic acid]?
A: Efficacy: percent growth inhibition relative to the untreated control [1]: 24%; Efficacy: percent growth inhibition relative to the untreated control [2]: 45%; rescue of Raldh2 −/− embryos (phenotype) (Raldh2 −/− embryos; 2.5 mg/kg to pregnant mothers): partial rescue; No. of −/− unrescued (Raldh2 −/− embryos; [8]): 8; Teratogenesis (no. of embryos) (Raldh2 −/− embryos; [8]): 0; No. of −/− rescued (Raldh2 −/− embryos; [9]): 6; No. of −/− unrescued (Raldh2 −/− embryos; [9]): 1; Teratogenesis (no. of embryos) (Raldh2 −/− embryos; [9]): 0; Efficacy: percent growth inhibition relative to the untreated control [3]: 47%; induction of apoptosis (TUNEL) in organotypic cultures [4]: Apoptosis was induced; Efficacy: percent growth inhibition relative to the untreated control [5]: 28%

Q: With CC1=C(/C=C/C(C)=C/C=C/C(C)=C/C(=O)O)C(C)(C)CCC1 [All-trans-RA] as the compound, how does the “No. of −/− rescued” value (Raldh2 −/− embryos; [10]) read?
A: 0

Q: And the “No. of −/− unrescued” value (Raldh2 −/− embryos; [10])?
A: 7

Q: And the “Teratogenesis (no. of embryos)” value (Raldh2 −/− embryos; [10])?
A: 0

Q: And the “No. of −/− rescued” value (Raldh2 −/− embryos; [8])?
A: 13

Q: And the “No. of −/− unrescued” value (Raldh2 −/− embryos; [8])?
A: 1

Q: What about the “Teratogenesis (no. of embryos)” value (Raldh2 −/− embryos; [8]) of the same compound?
A: 0

Q: With CCOC(=O)c1ccc(OC(=O)c2ccc3c(c2)C(C)(C)CCN3C(C)C)cc1 [NHet17] as the compound, how does the “topical irritancy (cutaneous toxicity score)” value (from here on “topical irritancy”) [6] read?
A: induced topical irritancy scores in a dose-responsive manner

Q: Which “topical irritancy” value [6] does the source give for CC1(C)CCOc2ccc(C(=O)Oc3ccc(C=NNC(N)=S)cc3)cc21 [OHet72] here?
A: did not induce topical irritancy

Q: What about the “rescue of Raldh2 −/− embryos (phenotype)” value (Raldh2 −/− embryos; 2.5 mg/kg to pregnant mothers) of the same compound?
A: no rescue

Q: And the “rescue of Raldh2 −/− embryos (phenotype)” value (Raldh2 −/− embryos; 10 or 25 mg/kg to pregnant mothers)?
A: no rescue

Q: What about the teratogenesis in litters (Raldh2 −/− embryos; any dosage (2.5, 10, 25 mg/kg)) of the same compound?
A: no teratogenesis was observed

Q: And the “No. of −/− rescued” value (Raldh2 −/− embryos; [8])?
A: 0

Q: And the “No. of −/− unrescued” value (Raldh2 −/− embryos; [8])?
A: 4

Q: And the “Teratogenesis (no. of embryos)” value (Raldh2 −/− embryos; [8])?
A: 0

Q: What about the “No. of −/− rescued” value (Raldh2 −/− embryos; [9]) of the same compound?
A: 0

Q: And the “No. of −/− unrescued” value (Raldh2 −/− embryos; [9])?
A: 3

Q: What about the “Teratogenesis (no. of embryos)” value (Raldh2 −/− embryos; [9]) of the same compound?
A: 0

Q: And the “No. of −/− rescued” value (Raldh2 −/− embryos; [11])?
A: 0

Q: What about the “No. of −/− unrescued” value (Raldh2 −/− embryos; [11]) of the same compound?
A: 5

Q: And the “Teratogenesis (no. of embryos)” value (Raldh2 −/− embryos; [11])?
A: 0

Q: What does the source list for COC(=O)c1ccc(C(=O)Nc2ccc3c(c2)C(C)(C)CC(C)(C)S3)cc1 [SHet50, reference compound]?
A: Efficacy: percent growth inhibition relative to the untreated control [1]: 35%; growth of xenograft tumors versus sesame oil control (OVCAR-3 xenograft tumors): significantly inhibited the growth; also recorded: significantly less; Efficacy: percent growth inhibition relative to the untreated control [2]: 67%; ALT Activity [7]: 65.5 ± 46.3 mm/liter/min; Efficacy: percent growth inhibition relative to the untreated control [3]: 47%; induction of apoptosis (TUNEL) in organotypic cultures [4]: Apoptosis was induced; Efficacy: percent growth inhibition relative to the untreated control [5]: 15%

Q: For CC(C=CC=C(C)c1ccc2c(c1)C(C)(C)CS2)=CC(=O)O [SHet65], which “topical irritancy” value [6] is on record?
A: induced topical irritancy scores in a dose-responsive manner

Q: With CC(Cc1ccc(C(=O)O)cc1)c1ccc2c(c1)C(C)(C)CS2 (stereo not drawn) [SHet100] as the compound, how does the “rescue of Raldh2 −/− embryos (phenotype)” value (Raldh2 −/− embryos; 0.25 mg/kg to pregnant mothers) read?
A: partial rescue

Q: What about the “rescue of Raldh2 −/− embryos (phenotype)” value (Raldh2 −/− embryos; 0.5 mg/kg to pregnant mothers) of the same compound?
A: typical rescue phenotype

Q: And the teratogenesis in litter (Raldh2 −/− embryos; 2.5 mg/kg to pregnant mothers)?
A: teratogenic for all embryos in a litter

Q: And the “No. of −/− rescued” value (Raldh2 −/− embryos; [12])?
A: 0

Q: And the “No. of −/− unrescued” value (Raldh2 −/− embryos; [12])?
A: 2

Q: What about the “Teratogenesis (no. of embryos)” value (Raldh2 −/− embryos; [12]) of the same compound?
A: 0

Q: And the “No. of −/− unrescued” value (Raldh2 −/− embryos; [13])?
A: 0

Q: What about the “Teratogenesis (no. of embryos)” value (Raldh2 −/− embryos; [13]) of the same compound?
A: 0

Q: What about the “No. of −/− rescued” value (Raldh2 −/− embryos; [14]) of the same compound?
A: 6

Q: And the “No. of −/− unrescued” value (Raldh2 −/− embryos; [14])?
A: 1

Q: And the “Teratogenesis (no. of embryos)” value (Raldh2 −/− embryos; [14])?
A: 0

Q: And the “Teratogenesis (no. of embryos)” value (Raldh2 −/− embryos; [8])?
A: 11

— patent US20060281806A1, “Treatment and inhibition of disease conditions using flexible heteroarotinoids” (priority 2005, published 2006)
